Measurements taken from patent publication US20170122958A1, “Enzymes Functional Probes” (University of Dundee, priority 2013, published 2017).

What was measured:
[1] = tested on: Brd2(1) and (2) wild type and leucine to alanine, valine and isoleucine mutants; assay: DSF thermal stabilization (FIG. 15); assay type: binding, human; conditions: result in words
Protocol: (§1) DSF assays were performed on a LightCycler®480 from Roche or a Mx3005P Real Time PCR machine from Stratagene. […] SYPRO®Orange from Invitrogen Molecular Probes® was used as a reporter dye to monitor the denaturing process of the proteins. Samples were assayed on a 96-well plate with final protein concentrations of 2 μM for the LightCycler®480 and 6 μM for Mx3005P. Compounds were added at a final concentration of 10 μM for the LightCycler®480 and 30 μM for Mx3005P, while the tetra acetylated histone peptide was added to a final concentration of 100 μM and 300 μM respectively. […] The temperature was raised with a step of 0.6° C. per minute from 37° C. to 95° C. with the LightCycler®480 collecting 39 measurements per ° C., and 1° C. per minute from 25° C. to 95° C. with Mx3005P, collecting fluorescence readings at the end of each interval. Each sample was run in triplicates.
(§2) Collected data was analysed by IGOR Pro 6, a scientific software tool from Wave Metrics, Inc. Analysis was done following the recommendations of Niesen et al.. Fluorescence intensity was plotted as a function of temperature, generating a sigmoidal curve described by a two-state transition from folded to unfolded protein. Curves were fitted by the following sigmoidal equation: […]
(§3) A1 and A2 are the values of minimum and maximum intensities, respectively, x0 is the inflection point and dx is the rate. Fitted curves were differentiated in IGOR Pro 6 and the maximum of the first derivative was identified using the same program. These values correspond to the inflection points of the transition curves and thus to the melting temperatures of the proteins (Tm).

Brd2(1)*(Leu110-Ala) = Brd2(1)*(Leu110-Ala) (Homo sapiens, UniProt P25440, L110A); assay: DSF thermal shift; assay type: binding; set-up: Plasmids of the eight single BET bromodomain constructs Brd2(1), Brd2(2), Brd3(1), Brd3(2); His6 (N); made in house; host or cells: E. coli BL21(DE3); conditions: mutant
Protocol: as §1, §2, §3

Brd2(2)*(Leu383-Ala) = Brd2(2)*(Leu383-Ala) (Homo sapiens, UniProt P25440, L383A); assay: DSF thermal shift; assay type: binding; set-up: Plasmids of the eight single BET bromodomain constructs Brd2(1), Brd2(2), Brd3(1), Brd3(2); His6 (N); made in house; host or cells: E. coli BL21(DE3); conditions: mutant
Protocol: as §1, §2, §3

Brd2(2) Leu383-Ile = Brd2(2) Leu383-Ile (Homo sapiens, UniProt P25440, L383I); assay: ITC reverse titration of protein into compound; assay type: binding; set-up: Plasmids of the eight single BET bromodomain constructs Brd2(1), Brd2(2), Brd3(1), Brd3(2), Brd4(1), Brd4(2), Brdt(1) and Brdt(2); His6 (N); made in house; host or cells: E. coli BL21(DE3)
Protocol: (§4) ITC experiments were carried out on a ITC200 instrument from MicroCal™ Experiments were conducted at 3 different temperatures 15° C., 25° C. and 30° C., while stirring at 1000 rpm. Buffers of proteins, peptide and compounds were matched to 20 mM HEPES pH 7.5 at 25° C. and 100 mM NaCl. Frozen protein was buffer exchanged as described for the DSF experiments. Each titration comprised 1 initial injection of 0.4 μl lasting 0.8 s, followed by 19 injections of 2 μl lasting 4 s each at 2 min intervals. The initial injection was discarded during data analysis. Standard and reverse titrations were conducted depending on the binding partners.
(§5) Reverse titrations were conducted to test the binding of the known ligands and the novel chemical probes to the wild types and the mutants. Experiments were carried out either at 25° C. or 30° C. For strong binders, a concentration of 150-200 μM of the protein was injected into a solution of 15-20 μM compound. […] In cases where the compound was solubilized in dimethyl sulfoxide, DMSO concentration was adjusted to 1% both in the syringe and in the cell.
(§6) All the data was fitted to a single binding site model using the Microcal LLC ITC200 Origin software provided by the manufacturer to yield enthalpies of binding (ΔH) and binding constants (Kas). Further thermodynamic parameters were calculated from these values (changes in entropy ΔS, changes in free energy AG and dissociation constants (Kds)).

Brd2(1) Leu110-Ile = Brd2(1) Leu110-Ile (Homo sapiens, UniProt P25440, L110I); assay: ITC reverse titration of protein into compound; assay type: binding; set-up: Plasmids of the eight single BET bromodomain constructs Brd2(1), Brd2(2), Brd3(1), Brd3(2), Brd4(1), Brd4(2), Brdt(1) and Brdt(2); His6 (N); made in house; host or cells: E. coli BL21(DE3)
Protocol: as §4, §5, §6

Brd2(1) = molecular target: T1, Brd2(1) (Homo sapiens, UniProt P25440); assay: ITC reverse titration of protein into compound; assay type: binding; conditions: for ΔH Brd2(1): ITC 25° C.
T1 construct: Plasmids of the eight single BET bromodomain constructs Brd2(1), Brd2(2), Brd3(1), Brd3(2); His6 (N); made in house; host or cells: E. coli BL21(DE3)
T1 sequence (P25440 74-180 limits assumed): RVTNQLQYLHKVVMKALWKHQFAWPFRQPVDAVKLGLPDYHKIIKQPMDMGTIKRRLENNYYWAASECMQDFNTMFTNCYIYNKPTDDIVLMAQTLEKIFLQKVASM

Sequence of Brd2(2)*(Leu383-Ala) (P25440 344-453 L383A limits assumed): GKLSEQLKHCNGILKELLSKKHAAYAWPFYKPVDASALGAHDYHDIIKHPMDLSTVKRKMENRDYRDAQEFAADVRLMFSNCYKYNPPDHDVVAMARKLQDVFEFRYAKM
Sequence of Brd2(1)*(Leu110-Ala) (P25440 74-180 L110A limits assumed): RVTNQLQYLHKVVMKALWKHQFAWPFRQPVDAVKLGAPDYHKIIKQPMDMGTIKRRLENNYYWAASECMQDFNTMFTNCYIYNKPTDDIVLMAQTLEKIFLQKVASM
Sequence of Brd2(2) Leu383-Ile (P25440 344-453 L383I limits assumed): as the sequence (P25440 344-453 L383A limits assumed) above, with A40I counted along it
Sequence of Brd2(1) Leu110-Ile (P25440 74-180 L110I limits assumed): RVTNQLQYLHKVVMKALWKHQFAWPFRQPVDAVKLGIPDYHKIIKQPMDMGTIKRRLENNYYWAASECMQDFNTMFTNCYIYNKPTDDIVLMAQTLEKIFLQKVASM

Row | SMILES | Thermal stabilization of Brd2 mutants versus wild types (FIG. 15) [1] | Thermal stabilisation brd2(1)L110A (Brd2(1)*(Leu110-Ala)) [°C] | ΔTm Brd2(1)*(Leu110-Ala) (Brd2(1)*(Leu110-Ala)) [K] | Thermal stabilisation brd2(1)L110A (Brd2(1)*(Leu110-Ala); listed as compound 7) [°C] | Thermal stabilisation brd2(2)L383A (Brd2(2)*(Leu383-Ala)) [°C] | ΔTm Brd2(2)*(Leu383-Ala) (Brd2(2)*(Leu383-Ala)) [K] | Thermal stabilisation brd2(2)L383A (Brd2(2)*(Leu383-Ala); listed as compound 7) [°C] | Kd (Brd2(2) Leu383-Ile) [nM] | Kd (Brd2(1) Leu110-Ile) [nM] | Kd (Brd2(1)) [nM] | ΔH Brd2(1) (Brd2(1)) [kcal/mol]
1 | COC(=O)[C@H](C)[C@@H]1N=C(c2ccc(Cl)cc2)c2cc(OC)ccc2-n2c(C)nnc21 (racemic) [Compound 7, (+−)-methyl (R)-2-((S)-6-(4-chlorophenyl)-8-methoxy-1-methyl-4H-benzo[f][1,2,4]triazolo[4,3-a][1,4]diazepin-4-yl)propanoate] | increased thermal shifts of the leucine to alanine mutants | 7.9 ± 0.2 | 7.9 ± 0.2 | 7.9 | 9.3 ± 0.2 | 9.3 ± 0.2 | 9.3 | 27 | 260 | 1470 | -8.653 ± 0.1357
2 | CC[C@@H](C(=O)OC)[C@@H]1N=C(c2ccc(Cl)cc2)c2cc(OC)ccc2-n2c(C)nnc21 (racemic) [Compound 11, (+−)-methyl (R)-2-((S)-6-(4-chlorophenyl)-8-methoxy-1-methyl-4H-benzo[f][1,2,4]triazolo[4,3-a][1,4]diazepin-4-yl)butanoate] | increased thermal shifts of the leucine to alanine mutants |  | 7.6 ± 0.2 |  |  | 8.1 ± 0.2 |  |  |  | 1780 ± 2000 | -2.957 ± 0.2144
